From US20100317709A1, “SPHINGOSINE-1-PHOSPHATE (S1P) RECEPTOR COMPOUNDS” (UNIVERSITEIT LEIDEN, priority 2007, published 2010)

Columns and labels:
S1P3 receptor = S1P3 receptor (Homo sapiens, UniProt Q99500); assay: cAMP accumulation assay at the S1P3 receptor (Lance cAMP 384 kit); assay type: cell-based; details: for EC50: N.D. = not defined because the potency and/or the efficacy were too low, read-out: pEC50 S1P3 (converted); for efficacy (α) S1P3: S1P = 1.00, N.D. = not defined because the potency and/or the efficacy were too low
Chain of S1P3 receptor (Q99500 whole entry): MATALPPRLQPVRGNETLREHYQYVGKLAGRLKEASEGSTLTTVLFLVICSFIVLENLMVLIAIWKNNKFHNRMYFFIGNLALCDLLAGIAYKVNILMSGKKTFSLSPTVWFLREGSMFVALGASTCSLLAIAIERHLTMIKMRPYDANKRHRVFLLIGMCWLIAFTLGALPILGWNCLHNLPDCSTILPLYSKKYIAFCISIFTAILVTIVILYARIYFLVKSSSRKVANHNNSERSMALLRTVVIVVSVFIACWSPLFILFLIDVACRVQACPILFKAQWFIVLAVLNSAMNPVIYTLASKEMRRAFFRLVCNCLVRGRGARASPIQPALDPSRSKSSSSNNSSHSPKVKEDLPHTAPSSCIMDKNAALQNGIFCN
From the text: (§1) A primary function of certain cell surface receptors is to activate second messenger systems upon binding of an agonist. The S1P1 receptor selectively binds to and activates Gi-proteins and activation of this receptor subtype thus results in the inhibition of cAMP production. The S1P2 receptor predominantly activates Gq-proteins finally resulting in increases in intracellular calcium. S1P3 receptor activation results in both, an inhibition of cAMP production and an increase in intracellular calcium, via the activation of Gi- and Gq-proteins
(§2) Accordingly, we performed measurements on cAMP accumulation (Lance cAMP 384 kit, Perkin Elmer, Zaventem, Belgium) and measurements on changes in intracellular calcium (for method see Jongsma et al., 2006) (8).

S1P1 receptor = S1P1 receptor (Homo sapiens, UniProt P21453); assay: cAMP accumulation assay at the S1P1 receptor (Lance cAMP 384 kit); assay type: cell-based; details: for EC50: N.D. = not defined because the potency and/or the efficacy were too low, read-out: pEC50 S1P1 (converted); for efficacy (α) S1P1: S1P = 1.00, N.D. = not defined because the potency and/or the efficacy were too low
Chain of S1P1 receptor (P21453 whole entry): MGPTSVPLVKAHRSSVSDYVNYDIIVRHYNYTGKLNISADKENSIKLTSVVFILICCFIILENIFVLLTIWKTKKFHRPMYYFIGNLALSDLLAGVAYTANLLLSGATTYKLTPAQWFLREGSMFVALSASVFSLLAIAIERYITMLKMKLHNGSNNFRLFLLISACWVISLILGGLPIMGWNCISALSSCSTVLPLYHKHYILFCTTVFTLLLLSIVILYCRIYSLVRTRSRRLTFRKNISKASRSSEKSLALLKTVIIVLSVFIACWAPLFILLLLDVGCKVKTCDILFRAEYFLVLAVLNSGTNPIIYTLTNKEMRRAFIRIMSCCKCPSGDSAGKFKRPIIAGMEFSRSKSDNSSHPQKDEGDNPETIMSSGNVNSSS
From the text: as §1, §2

## CCc1c(C)sc(N)c1C(=O)c1ccccc1 [LUF5464, (2-Amino-4-ethyl-5-methyl-3-thienyl)(phenyl)methanone]
S1P3 receptor
  EC50: > 10000 nM
  efficacy (α) S1P3: +/−1 (n = 3)
other
  melting point: 129 to 131 °C

## Nc1sc2c(c1C(=O)c1ccccc1)CCCC2 [LUF5465, (2-Amino-4,5,6,7-tetrahydrobenzo[b]thiophen-3-yl)(phenyl)methanone]
S1P3 receptor
  EC50: > 10000 nM
  efficacy (α) S1P3: >0.5

## CCc1c(C)sc(N)c1C(=O)c1cccc(C(F)(F)F)c1 [LUF5468, (2-Amino-4-ethyl-5-methyl-3-thienyl)[3-(trifluoromethyl)phenyl]methanone]
other
  melting point: 100 to 101 °C

## Nc1sc2c(c1C(=O)c1cccc(C(F)(F)F)c1)CCCC2 [LUF5469, (2-Amino-4,5,6,7-tetrahydrobenzo[b]thiophen-3-yl)[3-(trifluoromethyl)phenyl]methanone]
S1P3 receptor
  EC50: 1290 nM
  efficacy (α) S1P3: 1.07
other
  melting point: 122 to 123 °C

## Cc1sc(N)c(C(=O)c2cccc(Cl)c2)c1C [LUF5471, (2-Amino-4,5-dimethyl-3-thienyl)(3-chlorophenyl)methanone]
other
  melting point: 114 to 116 °C

## CCc1c(C)sc(N)c1C(=O)c1cccc(Cl)c1 [LUF5472, (2-Amino-4-ethyl-5-methyl-3-thienyl)(3-chlorophenyl)methanone]
other
  melting point: 99 to 102 °C

## Nc1sc2c(c1C(=O)c1cccc(Cl)c1)CCCC2 [LUF5473, (2-Amino-4,5,6,7-tetrahydrobenzo[b]thiophen-3-yl)(3-chlorophenyl)methanone]
S1P3 receptor
  EC50: 1860 nM
  efficacy (α) S1P3: 1.07
S1P1 receptor
  EC50: 1000 nM
  efficacy (α) S1P1: 0.40
other
  melting point: 114 to 115 °C

## Nc1sc2c(c1C(=O)c1ccc(Cl)cc1)CCCC2 [LUF5480, (2-Amino-4,5,6,7-tetrahydrobenzo[b]thiophen-3-yl)(4-chlorophenyl)methanone]
S1P3 receptor
  EC50: 6760 nM
  efficacy (α) S1P3: 0.37

## CCc1c(C)sc(N)c1C(=O)c1ccc(Cl)cc1 [LUF5482, (2-Amino-4-ethyl-5-methyl-3-thienyl)(4-chlorophenyl)methanone]
other
  melting point: 108 to 110 °C

## Nc1sc2c(c1C(=O)c1ccc(Cl)c(Cl)c1)CCCC2 [LUF5484, (2-Amino-4,5,6,7-tetrahydrobenzo[b]thiophen-3-yl)(3,4-dichlorophenyl)methanone]
S1P3 receptor
  EC50: > 10000 nM
  efficacy (α) S1P3: <0.5 (n = 2)
other
  melting point: 152 to 154 °C

## Cc1sc(N)c(C(=O)c2ccc(Cl)cc2)c1C [LUF5487, (2-Amino-4,5-dimethyl-3-thienyl)(4-chlorophenyl)methanone]
other
  melting point: 123 to 125 °C

## Nc1sc(-c2ccccc2)cc1C(=O)c1ccc(Cl)cc1 [LUF5488, (2-Amino-5-phenyl-3-thienyl)(4-chlorophenyl)methanone]
other
  melting point: 173 to 175 °C

## Nc1sc2c(c1C(=O)c1ccc(C(F)(F)F)cc1)CCCC2 [LUF5489, (2-Amino-4,5,6,7-tetrahydrobenzo[b]thiophen-3-yl)[4-(trifluoromethyl)phenyl]methanone]
S1P3 receptor
  EC50: > 10000 nM
other
  melting point: 145 to 147 °C

## Nc1sc2c(c1C(=O)c1ccc(Br)cc1)CCCC2 [LUF5490, (2-Amino-4,5,6,7-tetrahydrobenzo[b]thiophen-3-yl)(4-bromophenyl)methanone]
S1P3 receptor
  EC50: 1150 nM
  efficacy (α) S1P3: 0.41
other
  melting point: 152 to 153 °C

## COC(=O)c1ccc(C(=O)c2c(N)sc3c2CCCC3)cc1 [LUF5492, Methyl 4[(2-Amino-4,5,6,7-tetrahydrobenzo[b]thiophen-3-yl)-carbonyl]benzoate]
S1P3 receptor
  EC50: 933 nM
  efficacy (α) S1P3: 0.25
other
  melting point: 159 to 160 °C

## Nc1sc2c(c1C(=O)c1ccc(C(=O)O)cc1)CCCC2 [LUF5493, 4-[(2-Amino-4,5,6,7-tetrahydrobenzo[b]thiophen-3-yl)-carbonyl]benzoic acid]
other
  melting point: 232 to 233 °C

## Nc1sc(CN2C(=O)c3ccccc3C2=O)cc1C(=O)c1cccc(C(F)(F)F)c1 [LUF5496, 2-({5-Amino-4-[3-(trifluoromethyl)benzoyl]-2-thienyl}methyl)-1,3-isoindolinedione]
S1P3 receptor
  EC50: > 10000 nM
other
  melting point: 199 to 200 °C

## Nc1sc2c(c1C(=O)c1ccc([N+](=O)[O-])cc1)CCCC2 [LUF5526, (2-Amino-4,5,6,7-tetrahydrobenzo[b]thiophen-3-yl)(4-nitrophenyl)methanone]
other
  melting point: 202 to 204 °C

## Cc1ccc(C(=O)c2c(N)sc3c2CCCC3)cc1 [LUF5527, (2-Amino-4,5,6,7-tetrahydrobenzo[b]thiophen-3-yl)(4-methylphenyl)methanone]
S1P3 receptor
  EC50: 3090 nM
  efficacy (α) S1P3: 0.96
other
  melting point: 155 to 156 °C

## Nc1sc2c(c1C(=O)c1ccc(I)cc1)CCCC2 [LUF5528, (2-Amino-4,5,6,7-tetrahydrobenzo[b]thiophen-3-yl)(4-iodophenyl)methanone]
S1P3 receptor
  EC50: > 10000 nM
  efficacy (α) S1P3: <0.5 (n = 2)
other
  melting point: 150 to 152 °C

## Nc1sc2c(c1C(=O)c1ccccc1Cl)CCCC2 [LUF5532, (2-Amino-4,5,6,7-tetrahydrobenzo[b]thiophen-3-yl)(2-chlorophenyl)methanone]
S1P3 receptor
  EC50: 4170 nM
  efficacy (α) S1P3: 0.71
S1P1 receptor
  EC50: 4170 nM
  efficacy (α) S1P1: 0.63
other
  melting point: 145 to 147 °C

## Nc1sc2c(c1C(=O)c1cccc(I)c1)CCCC2 [LUF5533, (2-Amino-4,5,6,7-tetrahydrobenzo[b]thiophen-3-yl)(3-iodophenyl)methanone]
S1P3 receptor
  EC50: 1260 nM
  efficacy (α) S1P3: 0.94
S1P1 receptor
  EC50: 1380 nM
  efficacy (α) S1P1: 0.46
other
  melting point: 160 to 162 °C

## CCCCCCCCCCCCC/C=C/[C@@H](O)[C@@H](N)COP(=O)(O)O [S1P, sphingosine-1-phosphate]
S1P3 receptor
  EC50: 0.347 nM
  efficacy (α) S1P3: 1.00
S1P1 receptor
  EC50: 0.138 nM
  efficacy (α) S1P1: 1.00
